Source: ChEMBL document CHEMBL1201862, “PubChem BioAssay data set” (2004)
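Test compounds were applied to cells in 96-well plates for 48 hours at 5 doses. GI50: concentration for 50% inhibition of growth.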 Active and inactive are the calls of the source. No stated cut-off is given here; in the data, active = GI50 up to about 1.1 µM and inactive = higher.

Columns and labels:
Experiment in all cases: growth of human tumour cells (NCI), 48 h
[1] = tested on: 786-0
[2] = tested on: A549
[3] = tested on: ACHN
[4] = tested on: CAKI-1
[5] = tested on: COLO 205
[6] = tested on: DLD-1
[7] = tested on: DMS-273
[8] = tested on: HCC 2998
[9] = tested on: HCT-116
[10] = tested on: HCT-15
[11] = tested on: HL-60
[12] = tested on: HOP-62
[13] = tested on: HOP-92
[14] = tested on: HT-29
[15] = tested on: K562
[16] = tested on: KM-20L2
[17] = tested on: KM12
[18] = tested on: LOX IMVI
[19] = tested on: LXFL 529
[20] = tested on: M14
[21] = tested on: MOLT-4
[22] = tested on: Malme-3M
[23] = tested on: NCI-H226
[24] = tested on: NCI-H23
[25] = tested on: NCI-H460
[26] = tested on: NCI-H522
[27] = tested on: OVCAR-3
[28] = tested on: OVCAR-4
[29] = tested on: OVCAR-5
[30] = tested on: OVCAR-8
[31] = tested on: RPMI-8226
[32] = tested on: RXF 631
[33] = tested on: SF-268
[34] = tested on: SF-295
[35] = tested on: SF-539
[36] = tested on: SK-MEL-28
[37] = tested on: SK-MEL-2
[38] = tested on: SN12C
[39] = tested on: SNB-19
[40] = tested on: SNB-75
[41] = tested on: SNB-78
[42] = tested on: SR
[43] = tested on: SW-620
[44] = tested on: TK-10
[45] = tested on: U-251
[46] = tested on: UACC-257
[47] = tested on: UO-31
[48] = tested on: XF498
[49] = tested on: A498
[50] = tested on: BT-549
[51] = tested on: CCRF-CEM
[52] = tested on: DMS-114
[53] = tested on: DU-145
[54] = tested on: EKVX
[55] = tested on: HOP-18
[56] = tested on: Hs-578T
[57] = tested on: IGROV-1
[58] = tested on: M19-MEL
[59] = tested on: MCF7
[60] = tested on: MDA-MB-231
[61] = tested on: MDA-MB-435
[62] = tested on: MDA-N
[63] = tested on: NCI/ADR-RES
[64] = tested on: PC-3
[65] = tested on: RXF 393
[66] = tested on: SK-MEL-5
[67] = tested on: SK-OV-3
[68] = tested on: T47D
[69] = tested on: UACC-62

Measured: GI50

Cc1cccc(C(C)(C)C)c1NC(=O)CC1C(=O)Nc2ccccc2[S+]1[O-] (configuration not stated)
49.2 µM: [10]
inactive: [1] > 100 µM | [2] 37 µM | [3] 31.4 µM | [4] 39.3 µM | [5] 21.1 µM | [6] 44.9 µM | [7] 38.1 µM | [8] 68.1 µM | [9] 40.6 µM | [11] 20.9 µM | [12] > 100 µM | [13] 68.7 µM | [14] 65 µM | [15] 34.1 µM | [16] 57.5 µM | [17] 73.6 µM | [18] 55.7 µM | [19] 37.8 µM | [20] 43.6 µM | [21] 20.3 µM | [22] 54 µM | [23] 69.3 µM | [24] 26.4 µM | [25] 54.1 µM | [26] 39.4 µM | [27] 49.7 µM | [28] 18.5 µM | [29] > 100 µM | [30] 97.1 µM | [31] 34.3 µM | [32] 70.3 µM | [33] > 100 µM | [34] 62.8 µM | [35] 75.7 µM | [36] 41.5 µM | [37] 49.3 µM | [38] 55.8 µM | [39] 57.1 µM | [40] 54.2 µM | [41] 54.6 µM | [42] 24.9 µM | [43] 36.7 µM | [44] 46.5 µM | [45] 58.9 µM | [46] 61.9 µM | [47] 41.6 µM | [48] 68.9 µM

CCCC/C=C1\CCC(CN2CCCCC2)C1=O (configuration not stated)
9.06 µM: [10]
inactive: [1] 6.31 µM | [49] 25.7 µM | [2] 33.3 µM | [3] 29.3 µM | [50] > 100 µM | [4] 9.48 µM | [51] 7.73 µM | [5] 12 µM | [6] 1.76 µM | [52] 6.65 µM | [53] > 100 µM | [54] 26.1 µM | [8] 8.67 µM | [9] 17.8 µM | [11] 7.6 µM | [55] 8.73 µM | [12] 33 µM | [13] 10.9 µM | [14] 10.9 µM | [56] > 100 µM | [57] 19.1 µM | [15] 7.82 µM | [16] 15.2 µM | [18] > 28.9 µM | [19] 1.7 µM | [20] 10.1 µM | [58] 8.36 µM | [59] > 100 µM | [60] > 100 µM | [61] > 100 µM | [62] > 100 µM | [21] 8.38 µM | [22] 8.55 µM | [23] 26.5 µM | [24] 28.1 µM | [25] 33.6 µM | [63] > 100 µM | [27] 29.8 µM | [28] 30.5 µM | [29] 34.7 µM | [30] 12.8 µM | [64] > 100 µM | [65] 10.9 µM | [32] 8.11 µM | [33] 32.1 µM | [34] 30.5 µM | [35] 19 µM | [36] 21.3 µM | [37] > 39 µM | [66] 26.6 µM | [67] > 42.1 µM | [38] 11.5 µM | [39] 31.7 µM | [40] > 100 µM | [41] 4.2 µM | [43] 7.91 µM | [68] > 100 µM | [44] 12.4 µM | [45] 29.2 µM | [46] 24.9 µM | [69] 11.4 µM | [47] 32.8 µM | [48] 2.3 µM
